Data reported in patent publication US4248883A, “1-(3-Mercapto-2-methylpropanoyl)prolyl amino acid derivatives and salts thereof, processes for their preparation, and pharmaceutical compositions containing such compounds” (Dainippon Pharmaceutical Co., Ltd., priority 1978, dated 1981).
Like-named read-outs stand apart in the source and are kept apart here.

Assays:
[1] = tested on: Goldblatt two-kidney renal hypertensive rats; assay: Test 1: antihypertensive activity, oral, tail-plethysmographic blood pressure in Goldblatt two-kidney renal hypertensive rats; type: in vivo, rat (male STD Wistar strain); conditions: for change in vivo at 100 µmol/kg: Rattus norvegicus; for Peak time (time at which the maximum hypotensive effect was observed): renal hypertensive rats; for antihypertensive effect time course relative to compound 1 (SQ-14225), FIGS. 1 and 2: single oral, 0.015 millimole/kg and 0.1 millimole/kg, mean of six animals
From the text: The contralateral kidney and its renal artery were left intact. The animals were maintained on commercial rat chow and tap water ad libitum.
In each Figure, the ordinate represents the changes in blood pressure (mmHg) and the abscissa, the time (hours) elapsed after oral administration.

in vivo = conditions: mouse, in vivo
From the text: (§1) Male STD-ddY strain mice, weighing 21 to 24 grams, were used.

mice = assay: Test 2: toxicity (acute LD50 in mice); conditions: mice
From the text: as §1

[2] = tested on: angiotensin I-converting enzyme; conditions: Biochemistry, 16, 5484 (1977); cited from earlier work
[3] = tested on: angiotensin I-converting enzyme; conditions: Science 196, 441 (1977); cited from earlier work
[4] = tested on: experimental hypertensive animals; conditions: Science 196, 441 (1977); cited from earlier work
[5] = oral, 0.1 millimole/kg, 7 hours after administration, % of initial blood pressure, read-out: Change in blood pressure, 7 hours after administration (%)
[6] = oral, 0.1 millimole/kg, at peak time, % of initial blood pressure, read-out: Change in blood pressure, peak time (%)
[7] = oral, 0.1 millimole/kg, 7 hours after administration
[8] = oral, 0.1 millimole/kg, at peak time
[9] = oral, 0.1 millimole/kg, positive = decrease

Structure (SMILES): C[C@H](CSC(=O)c1ccccc1)C(=O)N1CCC[C@H]1C(=O)N[C@@H](Cc1ccccc1)C(=O)O [F, 1-(D-3-Benzoylthio-2-methylpropanoyl)-L-prolyl-L-phenylalanine]
- change in vivo at 100 µmol/kg [1, 5]: -15%
- change in vivo at 100 µmol/kg [1, 6]: -15%
- Change in blood pressure, 7 hours after administration [1, 7]: -31 mmHg
- Change in blood pressure, peak time [1, 8]: -31 mmHg
- Peak time (time at which the maximum hypotensive effect was observed) ([1]; oral, 0.1 millimole/kg): 5 h

Structure (SMILES): CCOC(=O)[C@H](Cc1ccc(O)cc1)NC(=O)[C@@H]1CCCN1C(=O)[C@H](C)CSC(C)=O [H, 1-(D-3-Acetylthio-2-methylpropanoyl)-L-prolyl-L-tyrosine ethyl ester]
- change in vivo at 100 µmol/kg [1, 5]: -14%
- change in vivo at 100 µmol/kg [1, 6]: -17%
- Change in blood pressure, 7 hours after administration [1, 7]: -29 mmHg
- Change in blood pressure, peak time [1, 8]: -34 mmHg
- Peak time (time at which the maximum hypotensive effect was observed) ([1]; oral, 0.1 millimole/kg): 5 h

Structure (SMILES): CCSSC[C@@H](C)C(=O)N1CCC[C@H]1C(=O)N[C@@H](Cc1ccccc1)C(=O)O [E, 1-(D-3-Ethyldithio-2-methylpropanoyl)-L-prolyl-L-phenylalanine]
- change in vivo at 100 µmol/kg [1, 5]: -19%
- change in vivo at 100 µmol/kg [1, 6]: -19%
- Change in blood pressure, 7 hours after administration [1, 7]: -38 mmHg
- Change in blood pressure, peak time [1, 8]: -38 mmHg
- Peak time (time at which the maximum hypotensive effect was observed) ([1]; oral, 0.1 millimole/kg): 7 h

Structure (SMILES): CC(=O)SC[C@@H](C)C(=O)N1CCC[C@H]1C(=O)N[C@@H](Cc1ccccc1)C(=O)O [A, 1-(D-3-Acetylthio-2-methylpropanoyl)-L-prolyl-L-phenylalanine]
- change in vivo at 100 µmol/kg [1, 5]: -16%
- change in vivo at 100 µmol/kg [1, 6]: -17%
- Change in blood pressure, 7 hours after administration [1, 7]: -33 mmHg
- Change in blood pressure, peak time [1, 8]: -35 mmHg
- Peak time (time at which the maximum hypotensive effect was observed) ([1]; oral, 0.1 millimole/kg): 5 h
- antihypertensive effect time course relative to compound 1 (SQ-14225), FIGS. 1 and 2 [1]: milder and more prolonged antihypertensive effect
- LD50 (in vivo; iv): > 1000 mg/kg
- LD50 (in vivo; po): > 6000 mg/kg
- toxicity (in words) (mice): very weak

Structure (SMILES): C[C@H](CS)C(=O)N1CCC[C@H]1C(N)=O [Compound 2, 1-(D-3-Mercapto-2-methylpropanoyl)-L-proline amide, reference compound]
- change in vivo at 100 µmol/kg [1, 5]: -1%
- change in vivo at 100 µmol/kg [1, 6]: -3%
- reduction of blood pressures (in words) ([1]; oral, 0.1 millimole/kg): did not reduce blood pressures
- Change in blood pressure, 7 hours after administration [1, 7]: -1 mmHg
- Change in blood pressure, peak time [1, 8]: -5 mmHg
- Peak time (time at which the maximum hypotensive effect was observed) ([1]; oral, 0.1 millimole/kg): 2 h

Structure (SMILES): COC(=O)[C@H](Cc1ccc(O)cc1)NC(=O)[C@@H]1CCCN1C(=O)[C@H](C)CSC(C)=O [G, 1-(D-3-Acetylthio-2-methylpropanoyl)-L-prolyl-L-tyrosine methyl ester]
- change in vivo at 100 µmol/kg [1, 5]: -15%
- change in vivo at 100 µmol/kg [1, 6]: -17%
- Change in blood pressure, 7 hours after administration [1, 7]: -29 mmHg
- Change in blood pressure, peak time [1, 8]: -33 mmHg
- Peak time (time at which the maximum hypotensive effect was observed) ([1]; oral, 0.1 millimole/kg): 5 h

Structure (SMILES): C[C@H](CSC(=O)C(C)(C)C)C(=O)N1CCC[C@H]1C(=O)N[C@@H](Cc1ccccc1)C(=O)O [C, 1-[D-3-(2,2-Dimethylpropanoyl)thio-2-methylpropanoyl]-L-prolyl-L-phenylalanine]
- change in vivo at 100 µmol/kg [1, 5]: -18%
- change in vivo at 100 µmol/kg [1, 6]: -20%
- Change in blood pressure, 7 hours after administration [1, 7]: -37 mmHg
- Change in blood pressure, peak time [1, 8]: -41 mmHg
- Peak time (time at which the maximum hypotensive effect was observed) ([1]; oral, 0.1 millimole/kg): 5 h

Structure (SMILES): CCOC(=O)[C@H](CCSC)NC(=O)[C@@H]1CCCN1C(=O)[C@H](C)CSC(C)=O [J, 1-(D-3-Acetylthio-2-methylpropanoyl)-L-prolyl-L-methionine ethyl ester]
- change in vivo at 100 µmol/kg [1, 5]: -13%
- change in vivo at 100 µmol/kg [1, 6]: -15%
- Change in blood pressure, 7 hours after administration [1, 7]: -27 mmHg
- Change in blood pressure, peak time [1, 8]: -30 mmHg
- Peak time (time at which the maximum hypotensive effect was observed) ([1]; oral, 0.1 millimole/kg): 5 h

Structure (SMILES): CCC(=O)SC[C@@H](C)C(=O)N1CCC[C@H]1C(=O)N[C@@H](Cc1ccccc1)C(=O)O [B, 1-(D-3-Propanoylthio-2-methylpropanoyl)-L-prolyl-L-phenylalanine]
- change in vivo at 100 µmol/kg [1, 5]: -17%
- change in vivo at 100 µmol/kg [1, 6]: -18%
- Change in blood pressure, 7 hours after administration [1, 7]: -36 mmHg
- Change in blood pressure, peak time [1, 8]: -40 mmHg
- Peak time (time at which the maximum hypotensive effect was observed) ([1]; oral, 0.1 millimole/kg): 5 h
- antihypertensive effect time course relative to compound 1 (SQ-14225), FIGS. 1 and 2 [1]: milder and more prolonged antihypertensive effect
- LD50 (in vivo; iv): > 1000 mg/kg
- LD50 (in vivo; po): > 6000 mg/kg
- toxicity (in words) (mice): very weak

Structure (SMILES): CCOC(=O)[C@H](Cc1c[nH]c2ccccc12)NC(=O)[C@@H]1CCCN1C(=O)[C@H](C)CSC(C)=O [I, 1-(D-3-Acetylthio-2-methylpropanoyl)-L-prolyl-L-tryptophan ethyl ester]
- change in vivo at 100 µmol/kg [1, 5]: -14%
- change in vivo at 100 µmol/kg [1, 6]: -16%
- Change in blood pressure, 7 hours after administration [1, 7]: -26 mmHg
- Change in blood pressure, peak time [1, 8]: -30 mmHg
- Peak time (time at which the maximum hypotensive effect was observed) ([1]; oral, 0.1 millimole/kg): 5 h

Structure (SMILES): C[C@H](CS)C(=O)N1CCC[C@H]1C(=O)O [Compound 1, 1-(D-3-Mercapto-2-methylpropanoyl)-L-proline, reference compound]
- change in vivo at 100 µmol/kg ([1]; po, 7 h, read-out: Change in blood pressure, 7 hours after administration (%)): -8%
- change in vivo at 100 µmol/kg ([1]; po, read-out: Change in blood pressure, peak time (%)): -18%
- Change in blood pressure, 7 hours after administration [1, 7]: -15 mmHg
- Change in blood pressure, peak time [1, 8]: -35 mmHg
- decrease in initial blood pressure at 7 hours after medication [1, 9]: 8%
- maximum hypotensive response (decrease in initial blood pressure) [1, 9]: 18%
- inhibition of angiotensin I-converting enzyme in vitro [2]: particularly good inhibitor of angiotensin I-converting enzyme
- inhibitory activity in vivo on angiotensin I-converting enzyme [3]: potent inhibitory activity in vivo
- antihypertensive activity in experimental hypertensive animals [4]: superior antihypertensive activity

Structure (SMILES): CC(C)C(=O)SC[C@@H](C)C(=O)N1CCC[C@H]1C(=O)N[C@@H](Cc1ccccc1)C(=O)O [D, 1-[D-3-(2-Methylpropanoyl)thio-2-methylpropanoyl]-L-prolyl-L-phenylalanine]
- change in vivo at 100 µmol/kg [1, 5]: -14%
- change in vivo at 100 µmol/kg [1, 6]: -18%
- Change in blood pressure, 7 hours after administration [1, 7]: -29 mmHg
- Change in blood pressure, peak time [1, 8]: -37 mmHg
- Peak time (time at which the maximum hypotensive effect was observed) ([1]; oral, 0.1 millimole/kg): 5 h

Structure (SMILES): CC(=O)SC[C@@H](C)C(=O)N1CCC[C@H]1C(N)=O [Compound 3, 1-(D-3-Acetylthio-2-methylpropanoyl)-L-proline amide, reference compound]
- change in vivo at 100 µmol/kg [1, 5]: -2%
- change in vivo at 100 µmol/kg [1, 6]: -4%
- reduction of blood pressures (in words) ([1]; oral, 0.1 millimole/kg): did not reduce blood pressures
- Change in blood pressure, 7 hours after administration [1, 7]: -4 mmHg
- Change in blood pressure, peak time [1, 8]: -7 mmHg
- Peak time (time at which the maximum hypotensive effect was observed) ([1]; oral, 0.1 millimole/kg): 2 h
